Results taken from the NIST ThermoML archive (doi:10.1021/je5003797).
Several values for one entry are separate records, joined by “and”; a condition that tells them apart may be missing. Equal values may be shown once.

Test: mn = molality of the nth substance listed, in mol/kg
Settings: 298.15 K, 101 kPa, Liquid

NC=O [formamide] + O
Settings | mass density
m1 = 0.4985 | 1000.74 kg/m3
m1 = 0.5096 | 1000.84 kg/m3
m1 = 0.5191 | 1000.9 kg/m3
m1 = 0.9969 | 1004.03 kg/m3
m1 = 1.081 | 1004.59 kg/m3
m1 = 1.085 | 1004.61 kg/m3
m1 = 1.499 | 1007.18 kg/m3 and 1007.2 kg/m3
m1 = 1.5 | 1007.19 kg/m3
m1 = 1.999 | 1010.19 kg/m3 and 1010.16 kg/m3
m1 = 2.007 | 1010.21 kg/m3
m1 = 2.48 | 1012.92 kg/m3
m1 = 2.488 | 1012.96 kg/m3
m1 = 2.502 | 1013.04 kg/m3
m1 = 2.994 | 1015.72 kg/m3
m1 = 3 | 1015.76 kg/m3
m1 = 3.002 | 1015.76 kg/m3
m1 = 3.476 | 1018.24 kg/m3
m1 = 3.502 | 1018.39 kg/m3
m1 = 3.535 | 1018.55 kg/m3
m1 = 3.999 | 1020.84 kg/m3
m1 = 4.044 | 1021.08 kg/m3
m1 = 4.137 | 1021.53 kg/m3
m1 = 4.49 | 1023.21 kg/m3
m1 = 4.502 | 1023.26 kg/m3
m1 = 4.505 | 1023.29 kg/m3
m1 = 5.002 | 1025.56 kg/m3
m1 = 5.012 | 1025.61 kg/m3
m1 = 5.067 | 1025.86 kg/m3
m1 = 5.49 | 1027.73 kg/m3
m1 = 5.547 | 1027.97 kg/m3
m1 = 5.575 | 1028.1 kg/m3
m1 = 5.973 | 1029.8 kg/m3
m1 = 6.008 | 1029.91 kg/m3
m1 = 6.01 | 1029.95 kg/m3
m1 = 6.497 | 1031.91 kg/m3
m1 = 6.503 | 1031.93 kg/m3
m1 = 6.51 | 1031.98 kg/m3
m1 = 6.99 | 1033.87 kg/m3
m1 = 7.004 | 1033.94 kg/m3
m1 = 7.056 | 1034.12 kg/m3
m1 = 7.468 | 1035.69 kg/m3
m1 = 7.481 | 1035.75 kg/m3
m1 = 7.493 | 1035.75 kg/m3
m1 = 7.99 | 1037.61 kg/m3
m1 = 8.002 | 1037.64 kg/m3
m1 = 8.037 | 1037.77 kg/m3
m1 = 8.468 | 1039.27 kg/m3
m1 = 8.506 | 1039.42 kg/m3
m1 = 8.522 | 1039.45 kg/m3
m1 = 8.947 | 1040.93 kg/m3
m1 = 8.99 | 1041.07 kg/m3
m1 = 9.032 | 1041.2 kg/m3
